According to ChEMBL document CHEMBL1201862, “PubChem BioAssay data set” (2004):
Activity calls are given as the source filed them.

How the values were obtained:
[1] = inhibitors of intracellular T. cruzi replication, confirmation, NIH3T3 host cells, beta-gal luminescence (AID 2044); type: functional, cell-based;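 further: intracellular parasites grown in NIH/3T3 mouse fibroblasts as host cells; luminescent beta-galactosidase reporter signal from transgenic T. cruzi replicating inside host cells; inhibitors lower the luminescence signal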
[2] = cytotoxicity toward NIH3T3 fibroblasts, dose response, counter-screen, cell-based, ATP luminescence, mouse fibroblasts (AID 2010); type: functional;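 further: cells exposed to compound for about 90 hours before reading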
[3] = tested on: HEK293; experiment: cells; settings: Homo sapiens
[4] = tested on: HEK293; experiment: cells; settings: Homo sapiens; remark: listed apart in the source
[5] = target: Tumor necrosis factor (Homo sapiens, UniProt P01375); experiment: TNFa-triggered NF-kB activation inhibitors, SAR follow-up, cell-based, revised (AID 2337); type: functional
[6] = target: T1, Nucleotide-binding oligomerization domain-containing protein 1 (Homo sapiens, UniProt Q9Y239); experiment: NOD1 signaling inhibitors, SAR follow-up, revised (AID 2333); type: functional
T1 sequence (Q9Y239 whole entry): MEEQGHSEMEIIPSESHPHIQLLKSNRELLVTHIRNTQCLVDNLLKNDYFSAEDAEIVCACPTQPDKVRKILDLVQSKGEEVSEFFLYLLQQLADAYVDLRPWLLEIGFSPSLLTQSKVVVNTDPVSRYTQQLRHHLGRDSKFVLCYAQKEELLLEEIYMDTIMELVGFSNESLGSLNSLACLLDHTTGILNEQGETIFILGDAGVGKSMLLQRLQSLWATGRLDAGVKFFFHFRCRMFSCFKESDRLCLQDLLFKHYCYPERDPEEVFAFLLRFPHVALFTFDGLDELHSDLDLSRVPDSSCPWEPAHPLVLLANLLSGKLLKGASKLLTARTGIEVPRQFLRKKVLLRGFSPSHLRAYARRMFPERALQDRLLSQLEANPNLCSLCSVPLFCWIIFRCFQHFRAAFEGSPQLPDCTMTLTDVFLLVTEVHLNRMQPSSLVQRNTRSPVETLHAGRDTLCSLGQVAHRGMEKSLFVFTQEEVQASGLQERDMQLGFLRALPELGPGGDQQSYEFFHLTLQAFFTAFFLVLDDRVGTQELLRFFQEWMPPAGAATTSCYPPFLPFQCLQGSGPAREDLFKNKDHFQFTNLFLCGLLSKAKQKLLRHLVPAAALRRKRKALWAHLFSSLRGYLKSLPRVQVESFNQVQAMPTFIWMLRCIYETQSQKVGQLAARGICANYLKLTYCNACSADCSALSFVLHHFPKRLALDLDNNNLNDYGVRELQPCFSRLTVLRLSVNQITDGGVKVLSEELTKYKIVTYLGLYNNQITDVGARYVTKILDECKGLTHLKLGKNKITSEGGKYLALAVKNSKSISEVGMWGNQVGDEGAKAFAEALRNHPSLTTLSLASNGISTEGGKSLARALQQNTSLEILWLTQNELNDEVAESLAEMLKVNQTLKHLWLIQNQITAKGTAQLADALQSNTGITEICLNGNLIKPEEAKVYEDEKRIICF

[7] = tested on: HEK293; experiment: cells; settings: Homo sapiens; remark: listed apart in the source
[8] = target: T2, Endoribonuclease toxin MazF (Escherichia coli K-12, UniProt P0AE70); experiment: MazF toxin RNase activators, dose response, biochemical, fluorescence, single-stranded RNA substrate, uHTS hits (AID 588481); type: functional
T2 sequence (P0AE70 whole entry): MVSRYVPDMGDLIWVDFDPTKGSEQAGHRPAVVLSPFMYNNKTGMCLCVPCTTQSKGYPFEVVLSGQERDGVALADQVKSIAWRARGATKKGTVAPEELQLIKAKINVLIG

[9] = target: T2, Endoribonuclease toxin MazF; experiment: fluorescent RNA oligo signal without MazF, dose response, counter-screen for MazEF activator project, biochemical, fluorescence, single-stranded RNase substrate (AID 588502); type: functional
[10] = target: Peroxisome proliferator-activated receptor gamma/Nuclear receptor coactivator 1 (Homo sapiens, UniProt P37231); experiment: (§1) TR-FRET dose response biochemical High Throughput Screening assay for agonists of the steroid receptor coactivator 1 (SRC-1) recruitment by the peroxisome proliferator-activated receptor gamma (PPAR gamma): non-selective agonists. [Related pubchem assays (depositor defined):AID1300, AID1808, AID504735, AID631]; type: protein assay
[11] = target: Peroxisome proliferator-activated receptor gamma/Nuclear receptor coactivator 3 (Homo sapiens, UniProt P37231); experiment: as §1, with “3 (SRC-3)” for “1 (SRC-1)”, “assays: 1301 (Confirmation screen.), 1048 (Primary screen.)]” for “assays (depositor defined):AID1300, AID1808, AID504735, AID631]”; type: functional
[12] = target: Peroxisome proliferator-activated receptor gamma/Nuclear receptor coactivator 2 (Homo sapiens, UniProt P37231); experiment: TR-FRET dose response biochemical High Throughput Screening assay for agonists of the steroid receptor coactivator 2 (SRC-2) recruitment by the peroxisome proliferator-activated receptor gamma (PPAR gamma): non-selective agonists. [Related pubchem assays: 1297, 1032 ]; type: functional
[13] = target: Melanocortin receptor 4 (Homo sapiens, UniProt P32245); experiment: MC4R antagonist potency on cAMP, dose response, cell-based, TR-FRET, biased antagonists (AID 602298); type: functional;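 further: antagonist potency against agonist-stimulated cAMP production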
[14] = nonselective inhibitors of cellular cAMP signaling, dose response, counter-screen for MC4R biased antagonist project, cell-based, TR-FRET cAMP detection (AID 602305); type: functional;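 further: U2OS cells stimulated with forskolin near its EC80 as the cAMP inducer; potency is for inhibition of forskolin-stimulated cAMP signaling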
[15] = target: T3, High affinity choline transporter 1 (Homo sapiens, UniProt Q9GZV3); experiment: CHT inhibitors, dose response, cell-based, 5-point CRC, membrane potential dye (AID 504840); type: functional
T3 sequence (Q9GZV3 whole entry): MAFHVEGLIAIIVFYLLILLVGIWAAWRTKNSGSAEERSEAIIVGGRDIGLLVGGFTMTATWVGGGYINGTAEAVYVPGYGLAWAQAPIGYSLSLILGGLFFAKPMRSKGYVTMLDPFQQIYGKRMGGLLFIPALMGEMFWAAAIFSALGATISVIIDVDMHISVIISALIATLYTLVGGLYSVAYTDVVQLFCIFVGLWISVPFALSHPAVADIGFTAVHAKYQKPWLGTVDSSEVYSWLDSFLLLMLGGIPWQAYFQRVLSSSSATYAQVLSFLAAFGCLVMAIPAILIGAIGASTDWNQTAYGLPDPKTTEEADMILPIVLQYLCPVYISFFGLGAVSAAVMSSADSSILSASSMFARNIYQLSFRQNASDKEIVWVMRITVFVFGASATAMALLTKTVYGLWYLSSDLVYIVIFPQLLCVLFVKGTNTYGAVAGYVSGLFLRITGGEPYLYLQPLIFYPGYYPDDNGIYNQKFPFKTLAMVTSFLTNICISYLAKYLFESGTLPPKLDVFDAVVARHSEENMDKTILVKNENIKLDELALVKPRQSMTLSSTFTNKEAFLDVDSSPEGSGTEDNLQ

[16] = target: Glyceraldehyde-3-phosphate dehydrogenase (Homo sapiens, UniProt P04406)
[17] = target: T4, Alkaline phosphatase, tissue-nonspecific isozyme (Homo sapiens, UniProt P05186); experiment: human TNAP enzyme inhibitors, SAR follow-up, biochemical, luminescent, dose response (AID 1056)
T4 sequence (P05186 whole entry): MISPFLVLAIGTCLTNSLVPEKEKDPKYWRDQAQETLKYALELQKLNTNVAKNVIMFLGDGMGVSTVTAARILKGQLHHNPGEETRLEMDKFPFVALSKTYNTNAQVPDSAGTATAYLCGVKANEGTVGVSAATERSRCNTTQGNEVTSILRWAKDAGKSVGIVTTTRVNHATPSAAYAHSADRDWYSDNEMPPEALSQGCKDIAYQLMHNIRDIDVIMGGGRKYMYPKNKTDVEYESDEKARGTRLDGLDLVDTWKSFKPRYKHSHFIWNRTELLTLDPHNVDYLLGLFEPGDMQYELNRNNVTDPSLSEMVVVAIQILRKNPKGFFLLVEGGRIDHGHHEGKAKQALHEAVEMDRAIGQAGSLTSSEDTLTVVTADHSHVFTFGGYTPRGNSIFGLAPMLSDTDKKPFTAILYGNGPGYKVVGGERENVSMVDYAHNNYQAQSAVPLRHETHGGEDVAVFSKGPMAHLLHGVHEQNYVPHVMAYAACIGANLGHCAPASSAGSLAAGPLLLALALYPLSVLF

[18] = target: T5, Cysteine protease ATG4B (Homo sapiens, UniProt Q9Y4P1); type: functional;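 further: Fluorescence-based dose-response confirmation assay measuring inhibition of ATG4B activity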
T5 sequence (Q9Y4P1 whole entry): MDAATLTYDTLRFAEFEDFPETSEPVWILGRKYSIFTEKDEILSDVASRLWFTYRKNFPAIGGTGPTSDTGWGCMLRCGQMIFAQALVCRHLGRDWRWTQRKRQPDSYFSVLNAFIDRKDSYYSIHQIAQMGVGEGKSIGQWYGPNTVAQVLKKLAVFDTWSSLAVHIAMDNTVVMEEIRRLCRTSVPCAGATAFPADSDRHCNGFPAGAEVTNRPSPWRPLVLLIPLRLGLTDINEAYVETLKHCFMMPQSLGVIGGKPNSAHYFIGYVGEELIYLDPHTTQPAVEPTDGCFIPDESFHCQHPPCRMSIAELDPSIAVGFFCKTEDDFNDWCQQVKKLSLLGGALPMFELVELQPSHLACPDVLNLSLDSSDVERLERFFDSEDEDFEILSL

[19] = target: Phospholipase A2 (Homo sapiens, UniProt P04054); type: functional;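 further: confirmatory dose-response counterscreen on phospholipase A2, testing hits that came from an ultra-high-throughput screen for ATG4B inhibitors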
[20] = growth suppression of PTEN-null colon cells, dose response, cell-based, HCT116 PTEN knockout (AID 1047); type: functional;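 further: HCT116 colon tumor cells with PTEN knocked out; cells exposed to compound for 60 hours before readout; potency for loss of cell viability measured by luminescence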
[21] = growth suppression of beta-catenin-knockout colon cells, dose response, cell-based, HCT116, human colon tumor (AID 1045); type: functional;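 further: HCT116 colon tumor cells with beta catenin knocked out; cells exposed to compound for 60 hours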
[22] = target: T6, Heat shock factor protein 1 (Mus musculus, UniProt P38532); experiment: HSF1 potentiators in luciferase reporter cells, confirmation, cell-based, NIH3T3, luminescence, dose retest (AID 435004); type: functional;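 further: stress induced by proteasome inhibitor MG132 added 30 min after compound; luciferase reporter driven by HSF1 response element in NIH3T3 cells; actives raise luminescence as potentiators of the MG132 stress response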
T6 sequence (P38532 whole entry): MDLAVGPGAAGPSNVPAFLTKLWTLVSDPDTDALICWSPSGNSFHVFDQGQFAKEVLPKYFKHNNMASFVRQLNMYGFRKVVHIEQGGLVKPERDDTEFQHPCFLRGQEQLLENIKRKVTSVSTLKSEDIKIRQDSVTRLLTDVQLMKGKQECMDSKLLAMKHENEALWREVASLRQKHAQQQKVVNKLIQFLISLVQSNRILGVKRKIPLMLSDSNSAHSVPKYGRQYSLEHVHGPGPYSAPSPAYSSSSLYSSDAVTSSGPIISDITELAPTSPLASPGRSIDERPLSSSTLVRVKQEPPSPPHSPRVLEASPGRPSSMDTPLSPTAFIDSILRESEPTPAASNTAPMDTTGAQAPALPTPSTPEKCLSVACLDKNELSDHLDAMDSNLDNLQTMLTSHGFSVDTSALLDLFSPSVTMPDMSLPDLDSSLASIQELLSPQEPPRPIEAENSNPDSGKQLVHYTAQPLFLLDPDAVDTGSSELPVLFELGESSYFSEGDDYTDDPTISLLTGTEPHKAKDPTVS

Sequence of Tumor necrosis factor (P01375 whole entry, the tested form may be a part): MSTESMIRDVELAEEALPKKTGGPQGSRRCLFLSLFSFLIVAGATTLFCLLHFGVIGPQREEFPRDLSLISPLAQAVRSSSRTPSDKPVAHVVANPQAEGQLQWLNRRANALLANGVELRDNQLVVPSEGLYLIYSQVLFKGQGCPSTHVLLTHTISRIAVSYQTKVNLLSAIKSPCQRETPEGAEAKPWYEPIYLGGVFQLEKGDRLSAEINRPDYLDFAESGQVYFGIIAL
Sequence of Melanocortin receptor 4 (P32245 whole entry): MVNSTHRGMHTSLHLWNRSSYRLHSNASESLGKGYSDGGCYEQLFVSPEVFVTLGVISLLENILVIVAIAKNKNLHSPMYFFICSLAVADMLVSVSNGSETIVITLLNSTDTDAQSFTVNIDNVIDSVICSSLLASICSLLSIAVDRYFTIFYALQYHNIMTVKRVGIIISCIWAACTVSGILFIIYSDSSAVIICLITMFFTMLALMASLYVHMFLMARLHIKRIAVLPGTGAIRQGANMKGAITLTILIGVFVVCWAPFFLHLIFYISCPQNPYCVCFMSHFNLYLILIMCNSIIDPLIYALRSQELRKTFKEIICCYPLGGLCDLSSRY
Sequence of Peroxisome proliferator-activated receptor gamma/Nuclear receptor coactivator 1 (P37231 whole entry): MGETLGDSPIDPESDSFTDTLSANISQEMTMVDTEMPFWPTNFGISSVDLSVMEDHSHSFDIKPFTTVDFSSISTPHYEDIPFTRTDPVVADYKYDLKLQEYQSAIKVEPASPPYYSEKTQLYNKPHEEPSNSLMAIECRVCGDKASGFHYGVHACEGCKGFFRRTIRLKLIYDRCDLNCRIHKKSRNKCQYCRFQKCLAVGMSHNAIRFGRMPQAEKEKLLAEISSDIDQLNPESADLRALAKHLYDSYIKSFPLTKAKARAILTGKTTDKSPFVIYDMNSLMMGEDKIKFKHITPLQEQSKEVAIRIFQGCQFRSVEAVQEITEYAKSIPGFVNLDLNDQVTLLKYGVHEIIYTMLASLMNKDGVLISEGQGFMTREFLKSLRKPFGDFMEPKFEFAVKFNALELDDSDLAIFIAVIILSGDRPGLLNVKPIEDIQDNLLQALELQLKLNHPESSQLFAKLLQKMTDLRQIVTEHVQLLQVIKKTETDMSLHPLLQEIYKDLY
Sequence of Peroxisome proliferator-activated receptor gamma/Nuclear receptor coactivator 1 (Q15788 whole entry, further chain): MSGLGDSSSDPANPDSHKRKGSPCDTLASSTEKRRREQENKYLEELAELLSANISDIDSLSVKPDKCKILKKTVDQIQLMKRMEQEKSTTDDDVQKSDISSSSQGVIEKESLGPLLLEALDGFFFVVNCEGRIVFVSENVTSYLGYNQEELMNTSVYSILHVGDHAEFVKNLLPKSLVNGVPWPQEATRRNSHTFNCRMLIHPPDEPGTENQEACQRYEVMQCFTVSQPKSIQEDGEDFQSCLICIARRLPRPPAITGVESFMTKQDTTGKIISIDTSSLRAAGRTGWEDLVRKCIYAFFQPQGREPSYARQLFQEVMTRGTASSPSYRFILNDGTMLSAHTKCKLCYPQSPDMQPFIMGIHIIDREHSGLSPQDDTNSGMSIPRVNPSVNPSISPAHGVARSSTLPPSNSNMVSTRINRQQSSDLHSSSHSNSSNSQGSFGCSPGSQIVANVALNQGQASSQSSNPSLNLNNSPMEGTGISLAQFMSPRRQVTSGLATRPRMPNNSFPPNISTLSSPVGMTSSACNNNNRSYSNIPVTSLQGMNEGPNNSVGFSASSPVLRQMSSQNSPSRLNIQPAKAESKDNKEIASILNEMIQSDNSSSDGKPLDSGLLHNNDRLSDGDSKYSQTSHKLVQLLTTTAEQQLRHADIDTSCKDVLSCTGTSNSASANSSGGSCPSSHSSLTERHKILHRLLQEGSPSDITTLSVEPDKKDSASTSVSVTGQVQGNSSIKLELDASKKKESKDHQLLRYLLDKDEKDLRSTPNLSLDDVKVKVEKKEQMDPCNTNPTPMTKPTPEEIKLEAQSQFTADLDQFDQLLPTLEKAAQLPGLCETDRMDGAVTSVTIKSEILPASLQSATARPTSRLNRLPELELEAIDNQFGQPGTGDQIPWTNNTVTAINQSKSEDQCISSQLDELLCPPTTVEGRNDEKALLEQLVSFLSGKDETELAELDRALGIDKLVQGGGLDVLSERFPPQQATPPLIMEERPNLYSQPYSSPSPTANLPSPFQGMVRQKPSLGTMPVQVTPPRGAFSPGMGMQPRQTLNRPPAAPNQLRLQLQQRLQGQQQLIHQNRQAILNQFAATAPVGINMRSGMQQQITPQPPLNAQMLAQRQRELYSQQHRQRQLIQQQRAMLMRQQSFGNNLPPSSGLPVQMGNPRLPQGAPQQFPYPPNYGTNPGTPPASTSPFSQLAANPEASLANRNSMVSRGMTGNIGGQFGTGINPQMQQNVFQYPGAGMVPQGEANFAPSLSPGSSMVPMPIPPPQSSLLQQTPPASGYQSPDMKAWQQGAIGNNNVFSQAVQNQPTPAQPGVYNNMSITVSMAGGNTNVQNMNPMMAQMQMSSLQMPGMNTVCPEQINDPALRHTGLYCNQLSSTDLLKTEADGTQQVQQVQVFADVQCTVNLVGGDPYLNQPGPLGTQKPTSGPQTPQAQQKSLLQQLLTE
Sequence of Peroxisome proliferator-activated receptor gamma/Nuclear receptor coactivator 2 (P37231 whole entry): as the sequence (P37231 whole entry) above
Sequence of Peroxisome proliferator-activated receptor gamma/Nuclear receptor coactivator 2 (Q15596 whole entry, further chain): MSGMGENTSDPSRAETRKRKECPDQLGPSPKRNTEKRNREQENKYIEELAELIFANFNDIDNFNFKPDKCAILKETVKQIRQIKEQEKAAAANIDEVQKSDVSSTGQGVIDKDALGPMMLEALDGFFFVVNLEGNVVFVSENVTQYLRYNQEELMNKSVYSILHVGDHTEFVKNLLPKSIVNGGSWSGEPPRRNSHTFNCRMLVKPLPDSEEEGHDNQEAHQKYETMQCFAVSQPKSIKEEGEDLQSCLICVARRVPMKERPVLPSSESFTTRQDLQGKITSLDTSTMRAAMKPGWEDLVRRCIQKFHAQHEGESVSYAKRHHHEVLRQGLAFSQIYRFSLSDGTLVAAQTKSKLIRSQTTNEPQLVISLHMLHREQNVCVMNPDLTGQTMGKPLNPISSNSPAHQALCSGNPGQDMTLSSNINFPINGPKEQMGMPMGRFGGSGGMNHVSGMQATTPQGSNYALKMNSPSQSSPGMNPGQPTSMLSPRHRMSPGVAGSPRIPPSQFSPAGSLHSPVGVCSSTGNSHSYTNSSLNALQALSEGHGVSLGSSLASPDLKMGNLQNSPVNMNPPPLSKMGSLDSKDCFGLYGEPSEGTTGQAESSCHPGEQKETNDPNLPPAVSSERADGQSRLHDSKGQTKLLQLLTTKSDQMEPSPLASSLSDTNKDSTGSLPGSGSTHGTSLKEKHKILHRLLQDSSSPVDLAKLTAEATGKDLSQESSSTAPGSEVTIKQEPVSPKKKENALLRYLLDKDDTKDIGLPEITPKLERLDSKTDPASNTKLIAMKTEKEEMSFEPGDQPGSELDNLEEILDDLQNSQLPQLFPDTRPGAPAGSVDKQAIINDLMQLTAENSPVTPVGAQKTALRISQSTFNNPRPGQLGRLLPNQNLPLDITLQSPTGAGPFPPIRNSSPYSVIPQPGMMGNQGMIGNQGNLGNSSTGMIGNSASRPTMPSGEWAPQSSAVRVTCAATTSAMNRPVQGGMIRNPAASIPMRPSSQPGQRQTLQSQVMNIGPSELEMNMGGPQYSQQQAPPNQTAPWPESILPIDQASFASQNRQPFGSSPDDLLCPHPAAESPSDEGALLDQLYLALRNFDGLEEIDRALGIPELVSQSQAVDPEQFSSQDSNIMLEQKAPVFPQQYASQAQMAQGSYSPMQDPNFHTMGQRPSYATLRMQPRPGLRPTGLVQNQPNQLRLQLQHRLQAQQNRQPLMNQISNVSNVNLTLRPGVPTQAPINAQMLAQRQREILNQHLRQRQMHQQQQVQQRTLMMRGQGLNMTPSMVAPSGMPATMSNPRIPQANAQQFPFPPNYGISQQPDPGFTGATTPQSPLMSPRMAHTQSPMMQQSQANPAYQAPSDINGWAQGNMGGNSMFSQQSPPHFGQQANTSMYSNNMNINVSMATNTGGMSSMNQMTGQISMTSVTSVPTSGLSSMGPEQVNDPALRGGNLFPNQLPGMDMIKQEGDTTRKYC
Sequence of Phospholipase A2 (P04054 whole entry): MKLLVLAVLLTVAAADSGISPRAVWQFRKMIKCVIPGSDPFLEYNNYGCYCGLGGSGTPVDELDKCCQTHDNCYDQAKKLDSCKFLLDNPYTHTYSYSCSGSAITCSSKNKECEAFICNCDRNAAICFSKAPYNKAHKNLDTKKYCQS
Sequence of Glyceraldehyde-3-phosphate dehydrogenase (P04406 whole entry): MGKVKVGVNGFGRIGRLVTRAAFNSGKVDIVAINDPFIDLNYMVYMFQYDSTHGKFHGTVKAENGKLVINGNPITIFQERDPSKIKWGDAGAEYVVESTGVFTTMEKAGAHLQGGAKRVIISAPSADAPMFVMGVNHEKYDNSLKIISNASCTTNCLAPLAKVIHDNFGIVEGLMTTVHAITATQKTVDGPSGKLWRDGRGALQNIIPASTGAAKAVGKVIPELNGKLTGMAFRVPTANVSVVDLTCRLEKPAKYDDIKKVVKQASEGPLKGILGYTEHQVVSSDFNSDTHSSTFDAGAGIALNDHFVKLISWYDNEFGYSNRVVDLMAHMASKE

CC(C)(C)N1C(=O)[C@H]2[C@@H](c3ccc(Br)cc3)N3C(=O)N(c4cccc(Br)c4)C(=O)[C@@]3(Cc3ccccc3)[C@H]2C1=O
EC50 [1]: 2.32 µM (active)
EC50 [2]: > 60 µM (not active)
EC50 [3]: > 59.7 µM (inactive)
EC50 [4]: > 59.7 µM (inactive)

CC1CCc2c(sc(NC(=O)c3ccc(Br)cc3)c2C(=O)O)C1 (configuration not stated)
IC50 [5]: 6.82 µM (active)
IC50 [6]: 0.375 µM (active)
IC50 [7]: 4.72 µM (active)

Cc1cccc(C)c1-n1nnnc1SCC(=O)c1c(N)n(C2CC2)c(=O)[nH]c1=O
EC50 [8]: > 99 µM (inactive)
EC50 [9]: > 99 µM (inactive)

O=C(O)c1cc(-c2ccc(Cl)s2)nc2ccccc12
EC50 [10]: 42.7 µM (inactive)
EC50 [11]: > 79.4 µM (not active)
EC50 [12]: 20.7 µM (not active)
IC50 [13]: > 64.6 µM (inactive)
IC50 [14]: > 64.6 µM (inactive)

O=C(Nc1sc2c(c1C(=O)O)CCCC2)c1ccc(Br)cc1
IC50 [5]: 2.25 µM (active)
IC50 [6]: 0.77 µM (active)
IC50 [7]: > 20 µM (inactive)

CCOC(=O)c1cnc2ccc(OCC)cc2c1N(C)Cc1ccccc1
IC50 [13]: > 64.6 µM (inactive)
IC50 [14]: > 64.6 µM (inactive)

COc1ccc(-c2cc(C(=O)Nc3cc(OC)cc(C(=O)Nc4cccc(C(F)(F)F)c4)c3)[nH]n2)cc1
IC50 [13]: > 64.6 µM (inactive)
IC50 [14]: > 64.6 µM (inactive)

CCOC(=O)C1CCCN(C(=O)c2csc(-c3ccc4c(c3)CCO4)n2)C1 (configuration not stated)
IC50 [15]: 13.2 µM (active)

CCOc1ccc(NC(=O)CNC(=O)c2nn(-c3ccc(OC)cc3)c(=O)c3ccccc23)cc1
EC50 [8]: 48.2 µM (inactive)
EC50 [9]: > 99 µM (inactive)

COc1cccc(Cc2nnc(N3C(=O)c4ccccc4C3=O)[nH]2)c1
IC50 [16]: > 100 µM (not active)
IC50 [17]: 1.19 µM (active)

Cc1ccc(C(=O)Nc2nc(-c3ccco3)c(-c3ccco3)s2)o1
IC50 [18]: 9.23 µM (active)
IC50 [19]: 5.79 µM (active)

CCOC(=O)c1c(NC(=O)CSc2nnc(-c3c[nH]c4ccccc34)n2CCOC)sc2c1CCCCC2
EC50 [20]: 21.3 µM (active)
EC50 [21]: 26.3 µM (active)
EC50 [3]: > 59.7 µM (inactive)
EC50 [4]: > 59.7 µM (inactive)

CCn1c(=O)cc(OCC(=O)NC(C)c2ccc3c(c2)OCCO3)c2ccccc21 (configuration not stated)
IC50 [15]: 15.8 µM (active)

Cn1c(=O)c2c(ncn2CC(=O)Nc2nc(-c3ccccc3Cl)cs2)n(C)c1=O
EC50 [8]: > 99 µM (inactive)
EC50 [9]: > 99 µM (inactive)

N#CC1=C(N)S[C@H](C(=O)C23CC4CC(CC(C4)C2)C3)[C@H]1c1ccncc1
EC50 [3]: > 59.7 µM (inactive)
EC50 [4]: > 59.7 µM (inactive)

COc1ccc(F)c(-c2nc(CN3CCN(c4ncnc5ccccc45)CC3)c(C)o2)c1
IC50 [5]: 3.8 µM (active)
IC50 [6]: 3.93 µM (active)
IC50 [7]: 13.7 µM (active)

CCOC(=O)c1ccc(/N=c2\sc(C(=O)OC)cc(=O)n2Cc2ccco2)cc1
EC50 [20]: 7.5 µM (active)
EC50 [21]: 5.88 µM (active)
EC50 [22]: 16.8 µM (active)
IC50 [13]: > 7.17 µM (active)
IC50 [14]: > 64.5 µM (inactive)
EC50 [3]: > 59.6 µM (inactive)
EC50 [4]: > 59.6 µM (inactive)
